# Test results published in PMC3509539, “seco-Briarellinone and Briarellin S, Two New Eunicellin-Based Diterpenoids from the Panamanian Octocoral Briareum asbestinum” (Marine Drugs, 2012).
# Where “and” joins values, the source holds several entries; their conditions need not be identical. Equal values may be shown once.
# How the values were obtained:
# [1] = test system: peritoneal macrophages from C57Bl/6 mice; test: Cytotoxicity testing, MTT assay; format: cell-based, mouse (C57Bl/6); conditions: inhibitory concentrations 5–20 μg/mL, macrophages after collection of the supernatant
# Procedure: Figure 4 Inhibition of nitric oxide (NO) production induced by lipopolisacharides (LPS) in macrophages. (A) Peritoneal macrophages from C57Bl/6 mice were treated with different concentrations of compounds 1–3 (1, 2, 5, 10, or 20 μg/mL) 1 h before the stimulus with LPS (1 μg/mL). After 24 h of stimulus with LPS, supernatants were collected for NO determination. (B) Cell viabilities were assessed using 3-(4,5-dimethylthiazol-2-yl)-2,5-diphenyltetrazolium bromide (MTT) assay after collection of the supernatant. Results represent mean ± S.E.M. and are representative of two different experiments. * P < 0.005 compared with LPS stimulus alone. C, control; Comp, compound. To evaluate the cytotoxicity of compounds 1–3, we used the MTT (Methylthiazolyldiphenyl-tetrazolium bromide) assay. Cell supernatants were removed for NO determination and were added to each well, 100 μL of MTT at a concentration of 0.5 mg/mL dissolved in RPMI. The assay plate was incubated overnight at 37 °C in 5% of CO2 atmosphere. In this assay the MTT is reduced to formazan by the activity of NAD-dependent dehydrogenase of living cell mitochondria to form a purple product. […] The color was analyzed at 570 nm using a micro-ELISA plate reader. The percent of viable cells was calculated using the formula: % viability = (ODsample × 100%)/(ODcontrol). […]
# [2] = test system: NO production by thioglycolate elicited peritoneal macrophages from C57Bl/6 mice stimulated with LPS; test: Inhibition of NO production induced by LPS in macrophages (Griess); format: cell-based, mouse (C57Bl/6); conditions: LPS 1 μg/mL; for IC50: Mus musculus, Peritoneal macrophage, primary murine macrophages, compound added 1 h before the stimulus, NO after 24 h
# Source text: The anti-inflammatory properties of diterpenes from natural sources have been described previously. However, anti-inflammatory activity of the briarellins family has not been evaluated before. The inhibition of NO production is frequently used as an indicator of anti-inflammatory activity. NO is produced by a family of enzymes called NO synthases (NOS) and it mediates many physiological processes. Inflammatory conditions lead to production of high levels of NO regulated by the inducible NOS (iNOS) enzyme. NO is produced by many cell types in vitro in response to several stimuli such as microbial products (e.g., bacterial lipopolisacharide (LPS)), cytokines, viral proteins, among others. We evaluated the production of NO by primary murine macrophages stimulated with LPS (1 μg/mL) in the presence or absence of different concentrations of compounds 1–3. […] The levels of NO found at higher concentrations (20 μg/mL) of compound 1 might be attributed to the non pyrogen-free conditions of the isolation and purification process of compounds. Possible contaminations with potential microbial products in the compounds preparations disguise the inhibitory effect expected at these concentrations. […] Further studies are necessary to find out if compound 3 is able to inhibit other signaling pathways leading to the production of inflammatory mediators different than NO.
# Figure 4 Inhibition of nitric oxide (NO) production induced by lipopolisacharides (LPS) in macrophages. […] (B) Cell viabilities were assessed using 3-(4,5-dimethylthiazol-2-yl)-2,5-diphenyltetrazolium bromide (MTT) assay after collection of the supernatant. […]
# To determine the anti-inflammatory capacity of compounds 1–3, thioglycolate elicited macrophages from C57Bl/6 mice were used. […] The concentration of NO was measured using the Griess Reagent System from Promega. […]
# Data are presented as mean ± S.E.M. Results were analyzed using a statistical software package (GraphPad Prism 5). […]
IC50 [2],Compound,Cell viability (MTT) [1],"Effect on the production of NO induced by LPS in macrophages ([2]; 1, 2, 5, 10 or 20 μg/mL, 24 h)"
1.71 µg/mL and 4.7 µM,"CC(=O)CC1OC2C3C(CC(=O)C(C)(O)C13)C(C)COC2(C)C=CC=O (centres unmarked) [compound 1, seco-Briarellinone]",do not interfere with the cell viability,
,"CC(=O)CC1OC2[C@@H]3C(C[C@H](C)[C@H](OC(C)=O)[C@H]13)[C@H](C)CO[C@]2(C)/C=C/C=O (some centres unmarked) [compound 3, seco-asbestinin]",,did not show any significant effect
10 µg/mL and 20.4 µM,"C=C1CC2OC3C4C(CC(=O)C(C)(O)C24)C(C)COC3(C)C(OC(=O)CCCCCCC)CC1O (centres unmarked) [compound 2, Briarellin S]",do not interfere with the cell viability,
